Patent publication US5545642A, “Derivatives of 1-(2-fluorocyclopropyl)-quinolonecarboxylic acid and 1-(2-fluorocyclopropyl)-naphthridonecarboxylic acid” (Bayer Aktiengesellschaft, priority 1993, dated 1996)
In brackets after ≈: the same amount, converted by molar mass. Where two headings read alike, the source gives them in different places.

Key:
[1] = test system: Enterococcus faecalis 27101; assay: MIC, agar serial dilution (Iso-Sensitest agar), Enterococcus faecalis 27101; assay type: cell-based; conditions: 37° C., about 20 hours
Protocol: (§1) The minimum inhibitory concentrations (MIC) were determined on Iso-Sensitest agar (Oxoid) using a serial dilution method. For each substance to be tested, a series of agar plates was prepared, which plates contained diminishing concentrations of the active compound produced in each case by a doubling dilution. The agar plates were inoculated using a Multipoint Inoculator (Denley). For the inoculation, overnight cultures of the pathogens were used which had been diluted beforehand such that each inoculation point contained approximately 10^4 colony-forming particles. The inoculated agar plates were incubated at 37° C. and the growth of organisms recorded after about 20 hours. The MIC value (μg/ml) indicates the lowest concentration of active compound at which no growth was visible to the naked eye. […] Example 8 from European Patent Application 520 277): […]

Escherichia coli Neumann = assay: MIC, agar serial dilution (Iso-Sensitest agar), Escherichia coli Neumann; assay type: cell-based; conditions: 37° C., about 20 hours
Protocol: as §1

in vitro = assay type: cell-based, Chinese hamster; conditions: hamster, cho-k1 cells
Protocol: (§2) The LD50 values listed in this table were determined following intravenous administration of the substances to CFl mice. The ID50 is understood to be the concentration of a substance at which the DNA synthesis in Chinese hamster ovary cells (CHO-KI) is inhibited by 50%. This value is determined following incubation of the corresponding substances in descending dilution steps for defined periods. For this purpose, the DNA synthesis in CHO-KI cells is determined in comparison to controls using fluorophotometric methods.

Providencia sp. 12012 = assay: MIC, agar serial dilution (Iso-Sensitest agar), Providencia sp. 12012; assay type: cell-based; conditions: 37° C., about 20 hours
Protocol: as §1

Micrococcus luteus 9341 = assay: MIC, agar serial dilution (Iso-Sensitest agar), Micrococcus luteus 9341; assay type: cell-based; conditions: 37° C., about 20 hours
Protocol: as §1

[2] = test system: Staphylococcus aureus ICB 25701; assay: MIC, agar serial dilution (Iso-Sensitest agar), Staphylococcus aureus ICB 25701; assay type: cell-based; conditions: about 20 hours
Protocol: as §1

Klebsiella sp. 8085 = assay: MIC, agar serial dilution (Iso-Sensitest agar), Klebsiella sp. 8085; assay type: cell-based; conditions: 37° C., about 20 hours
Protocol: as §1

[3] = LD50 following intravenous administration to CFl mice (tolerance); assay type: in vivo; conditions: mouse, in vivo, iv
Protocol: as §2

Morganella morganii 932 = assay: MIC, agar serial dilution (Iso-Sensitest agar), Morganella morganii 932; assay type: cell-based; conditions: 37° C., about 20 hours
Protocol: as §1

[4] = test system: Staphylococcus aureus 133; assay: MIC, agar serial dilution (Iso-Sensitest agar), Staphylococcus aureus 133; assay type: cell-based; conditions: 37° C., about 20 hours
Protocol: as §1

CFl mice = assay: LD50 following intravenous administration to CFl mice (tolerance); assay type: in vivo
Protocol: as §2

[5] = test system: Chinese hamster ovary cells (CHO-KI); assay: in vitro; assay type: cell-based; conditions: cho-k1 cells
Protocol: as §2

[6] = Escherichia coli, 20 h, read-out: MIC
[7] = Micrococcus luteus, 9341, 20 h, read-out: MIC
[8] = ICB25701, 37° C., read-out: MIC

CN1CCC2=C(C1)CN(c1c(F)cc3c(=O)c(C(=O)O)cn([C@@H]4C[C@@H]4F)c3c1F)C2 (relative stereo) [Example 1, 6,8-difluoro-1-(cis-2-fluorocyclopropyl)-1,4-dihydro-7-(5-methyl-2,3,4,5,6,7-hexahydro-1H-pyrrolo[3,4-c]pyridin-2-yl)-4-oxo-3-quinolinecarboxylic acid]
MIC ([1]; read-out: MIC): 0.06 mg/L (≈ 0.143 µM)
MIC (Escherichia coli Neumann; [6]): ≤ 0.015 mg/L
IC50 (in vitro): 35 mg/L (≈ 83.5 µM)
MIC (Providencia sp. 12012; read-out: MIC): 0.06 mg/L (≈ 0.143 µM)
MIC (Micrococcus luteus 9341; [7]): 0.25 mg/L (≈ 0.596 µM)
MIC [2, 8]: 0.5 mg/L (≈ 1.19 µM)
MIC (Klebsiella sp. 8085; read-out: MIC): 0.06 mg/L (≈ 0.143 µM)
LD50 [3]: 150 mg/kg
MIC (Morganella morganii 932; read-out: MIC): 0.03 mg/L (≈ 0.0715 µM)
MIC ([4]; read-out: MIC): 0.06 mg/L (≈ 0.143 µM)

CN1CCC2=C(C1)CN(c1c(F)cc3c(=O)c(C(=O)O)cn([C@@H]4C[C@@H]4F)c3c1Cl)C2 (relative stereo) [Example 4, 8-chloro-6-fluoro-1-(cis-2-fluorocyclopropyl)-1,4-dihydro-7-(5-methyl-2,3,4,5,6,7-hexahydro-1H-pyrrolo[3,4-c]-pyridin-2-yl)-4-oxo-3-quinolinecarboxylic acid]
MIC ([1]; read-out: MIC): 0.06 mg/L (≈ 0.138 µM)
MIC (Escherichia coli Neumann; [6]): ≤ 0.015 mg/L
MIC (Providencia sp. 12012; read-out: MIC): 0.06 mg/L (≈ 0.138 µM)
MIC (Micrococcus luteus 9341; [7]): 0.125 mg/L (≈ 0.287 µM)
MIC [2, 8]: 0.25 mg/L (≈ 0.574 µM)
MIC (Klebsiella sp. 8085; read-out: MIC): 0.06 mg/L (≈ 0.138 µM)
MIC (Morganella morganii 932; read-out: MIC): 0.06 mg/L (≈ 0.138 µM)
MIC ([4]; read-out: MIC): ≤ 0.015 mg/L

CN1CCC2=C(C1)CN(c1c(F)cc3c(=O)c(C(=O)O)cn([C@@H]4C[C@@H]4F)c3c1F)C2 (single isomer, unassigned) [Example 2, (-)-6,8-difluoro-1-(cis-2-fluorocyclopropyl)-1,4-dihydro-7-(5-methyl-2,3,4,5,6,7-hexahydro-1H-pyrrolo[3,4-c]pyridin-2-yl)-4-oxo-3-quinolinecarboxylicacid]
MIC ([1]; read-out: MIC): 0.06 mg/L (≈ 0.143 µM)
MIC (Escherichia coli Neumann; [6]): 0.03 mg/L (≈ 0.0715 µM)
IC50 (in vitro): 40 mg/L (≈ 95.4 µM)
MIC (Providencia sp. 12012; read-out: MIC): 0.06 mg/L (≈ 0.143 µM)
MIC (Micrococcus luteus 9341; [7]): 0.25 mg/L (≈ 0.596 µM)
MIC [2, 8]: 0.5 mg/L (≈ 1.19 µM)
MIC (Klebsiella sp. 8085; read-out: MIC): 0.06 mg/L (≈ 0.143 µM)
LD50 (CFl mice): 200 mg/kg
MIC (Morganella morganii 932; read-out: MIC): 0.06 mg/L (≈ 0.143 µM)
MIC ([4]; read-out: MIC): 0.06 mg/L (≈ 0.143 µM)

CN1CCC2=C(C1)CN(c1c(F)cc3c(=O)c(C(=O)O)cn([C@@H]4C[C@@H]4F)c3c1F)C2 (single isomer, unassigned) [Example 3, (+)-6,8-difluoro-1-(cis-2-fluorocyclopropyl)-1,4-dihydro-7-(5-methyl-2,3,4,5,6,7-hexahydro-1H-pyrrolo[3,4-c]pyridin-2-yl)-4-oxo-3-quinolinecarboxylicacid]
MIC [1]: 0.06 mg/L (≈ 0.143 µM)
MIC (Escherichia coli Neumann): ≤ 0.015 mg/L
ID50 (concentration at which DNA synthesis is inhibited by 50%) [5]: 40 mg/L (≈ 95.4 µM)
MIC (Providencia sp. 12012): 0.06 mg/L (≈ 0.143 µM)
MIC (Micrococcus luteus 9341): 0.125 mg/L (≈ 0.298 µM)
MIC ([2]; 37° C.): 0.5 mg/L (≈ 1.19 µM)
MIC (Klebsiella sp. 8085): 0.06 mg/L (≈ 0.143 µM)
LD50 (CFl mice): 50 mg/kg
MIC (Morganella morganii 932): 0.06 mg/L (≈ 0.143 µM)
MIC [4]: 0.06 mg/L (≈ 0.143 µM)

CN1CCC2=C(C1)CN(c1c(F)cc3c(=O)c(C(=O)O)cn(C4CC4)c3c1F)C2.Cl [Ref. 1, 1-cyclopropyl-6,8-difluoro-1,4-dihydro-7-(5-methyl-2,3,4,5,6,7-hexahydro-1H-pyrrolo[3,4-c]pyridin-2-yl)-4-oxo-3-quinolinecarboxylic acid hydrochloride, reference compound]
MIC ([1]; read-out: MIC): 0.125 mg/L
MIC (Escherichia coli Neumann; [6]): ≤ 0.015 mg/L
IC50 (in vitro): 1 mg/L
MIC (Providencia sp. 12012; read-out: MIC): 0.125 mg/L
MIC (Micrococcus luteus 9341; [7]): 0.5 mg/L
MIC [2, 8]: 1 mg/L
MIC (Klebsiella sp. 8085; read-out: MIC): 0.06 mg/L
LD50 [3]: 50 mg/kg
MIC (Morganella morganii 932; read-out: MIC): 0.03 mg/L
MIC ([4]; read-out: MIC): 0.6 mg/L

CN1CCC2=C(C1)CN(c1c(F)cc3c(=O)c(C(=O)O)cn(C4CC4)c3c1Cl)C2 [Ref. 2, 8-chloro-1-cyclopropyl-6-fluoro-1,4-dihydro-7-(5-methyl-2,3,4,5,6,7-hexahydro-1H-pyrrolo[3,4-c]pyridin-2-yl)-4-oxo-3-quino-1-linecarboxylic acid, reference compound]
MIC ([1]; read-out: MIC): 0.06 mg/L (≈ 0.144 µM)
MIC (Escherichia coli Neumann; [6]): 0.03 mg/L (≈ 0.0718 µM)
IC50 (in vitro): 16 mg/L (≈ 38.3 µM)
MIC (Providencia sp. 12012; read-out: MIC): 0.125 mg/L (≈ 0.299 µM)
MIC (Micrococcus luteus 9341; [7]): 0.25 mg/L (≈ 0.598 µM)
MIC [2, 8]: 0.5 mg/L (≈ 1.2 µM)
MIC (Klebsiella sp. 8085; read-out: MIC): 0.06 mg/L (≈ 0.144 µM)
LD50 [3]: 50 mg/kg
MIC (Morganella morganii 932; read-out: MIC): 0.06 mg/L (≈ 0.144 µM)
MIC ([4]; read-out: MIC): 0.03 mg/L (≈ 0.0718 µM)
